Test results reported in PubChem BioAssay (NCI).
Several values for one entry are separate records, joined by “and”; a condition that tells them apart may be missing. Equal values may be shown once.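 Five compound concentrations were applied to cells in 96-well plates for 48 hours; endpoints were derived by simple linear interpolation of the resulting dose-response curve. Here, GI50 denotes the concentration required for 50% inhibition of growth. At the TGI there is no net growth.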

Tests used:
Assay in all cases: DTP human tumour cell line panel, 48 h
786-0 renal = system: 786-0 renal
A498 renal = system: A498 renal
A549 NSCLC = system: A549 NSCLC
ACHN renal = system: ACHN renal
BT-549 breast = system: BT-549 breast
CAKI-1 renal = system: CAKI-1 renal
CCRF-CEM leukemia = system: CCRF-CEM leukemia
COLO 205 colon = system: COLO 205 colon
DU-145 prostate = system: DU-145 prostate
EKVX NSCLC = system: EKVX NSCLC
HCC-2998 colon = system: HCC-2998 colon
HCT-116 colon = system: HCT-116 colon
HCT-15 colon = system: HCT-15 colon
HL-60(TB) leukemia = system: HL-60(TB) leukemia
HOP-62 NSCLC = system: HOP-62 NSCLC
HOP-92 NSCLC = system: HOP-92 NSCLC
HS 578T breast = system: HS 578T breast
HT29 colon = system: HT29 colon
IGROV1 ovarian = system: IGROV1 ovarian
K-562 leukemia = system: K-562 leukemia
KM12 colon = system: KM12 colon
LOX IMVI melanoma = system: LOX IMVI melanoma
M14 melanoma = system: M14 melanoma
MALME-3M melanoma = system: MALME-3M melanoma
MCF7 breast = system: MCF7 breast
MDA-MB-231 breast = system: MDA-MB-231 breast
MDA-MB-435 = system: MDA-MB-435
MDA-N = system: MDA-N
MOLT-4 leukemia = system: MOLT-4 leukemia
NCI-H226 lung = system: NCI-H226 lung
NCI-H23 lung = system: NCI-H23 lung
NCI-H460 lung = system: NCI-H460 lung
NCI-H522 lung = system: NCI-H522 lung
NCI/ADR-RES ovarian = system: NCI/ADR-RES ovarian
OVCAR-3 ovarian = system: OVCAR-3 ovarian
OVCAR-4 ovarian = system: OVCAR-4 ovarian
OVCAR-5 ovarian = system: OVCAR-5 ovarian
OVCAR-8 ovarian = system: OVCAR-8 ovarian
PC-3 prostate = system: PC-3 prostate
RPMI-8226 leukemia = system: RPMI-8226 leukemia
RXF 393 renal = system: RXF 393 renal
SF-268 CNS = system: SF-268 CNS
SF-295 CNS = system: SF-295 CNS
SF-539 CNS = system: SF-539 CNS
SK-MEL-2 melanoma = system: SK-MEL-2 melanoma
SK-MEL-28 melanoma = system: SK-MEL-28 melanoma
SK-MEL-5 melanoma = system: SK-MEL-5 melanoma
SK-OV-3 ovarian = system: SK-OV-3 ovarian
SN12C renal = system: SN12C renal
SNB-19 CNS = system: SNB-19 CNS
SNB-75 CNS = system: SNB-75 CNS
SR leukemia = system: SR leukemia
SW-620 colon = system: SW-620 colon
T-47D breast = system: T-47D breast
TK-10 renal = system: TK-10 renal
U251 CNS = system: U251 CNS
UACC-257 melanoma = system: UACC-257 melanoma
UACC-62 melanoma = system: UACC-62 melanoma
UO-31 renal = system: UO-31 renal

CCOC(=O)C(SCCO)C(C(=O)OCC)n1cnc2c(N)ncnc21 (stereo not drawn)
TGI (786-0 renal): 12.2 µM | TGI (A498 renal): 19.2 µM | TGI (A549 NSCLC): > 100 µM | TGI (ACHN renal): 22.4 µM | TGI (BT-549 breast): 30.8 µM | TGI (CAKI-1 renal): 15.1 µM | TGI (CCRF-CEM leukemia): 6.39 µM | TGI (COLO 205 colon): 20 µM | TGI (DU-145 prostate): > 100 µM | TGI (EKVX NSCLC): 38.1 µM | TGI (HCC-2998 colon): 30.4 µM | TGI (HCT-116 colon): 22.2 µM | TGI (HCT-15 colon): 22.5 µM | TGI (HL-60(TB) leukemia): 5.46 µM | TGI (HOP-62 NSCLC): 45.4 µM | TGI (HOP-92 NSCLC): 13.4 µM | TGI (HS 578T breast): 59.2 µM | TGI (HT29 colon): 25.4 µM | TGI (IGROV1 ovarian): 36.5 µM | TGI (K-562 leukemia): 14.6 µM | TGI (KM12 colon): 35.2 µM | TGI (LOX IMVI melanoma): 15.1 µM | TGI (M14 melanoma): 9.83 µM | TGI (MALME-3M melanoma): 23.8 µM | TGI (MCF7 breast): 20.1 µM | TGI (MDA-MB-231 breast): 32.7 µM | TGI (MDA-MB-435): 30.2 µM | TGI (MDA-N): 44.1 µM | TGI (MOLT-4 leukemia): 20 µM | TGI (NCI-H226 lung): 38 µM | TGI (NCI-H23 lung): 31.2 µM | TGI (NCI-H460 lung): 18 µM | TGI (NCI-H522 lung): 19.1 µM | TGI (NCI/ADR-RES ovarian): 56.7 µM | TGI (OVCAR-3 ovarian): 25.4 µM | TGI (OVCAR-4 ovarian): > 48.3 µM | TGI (OVCAR-5 ovarian): 18.6 µM | TGI (OVCAR-8 ovarian): 31.2 µM | TGI (PC-3 prostate): 14.7 µM | TGI (RPMI-8226 leukemia): 23.5 µM | TGI (RXF 393 renal): 29.6 µM | TGI (SF-268 CNS): 35.9 µM | TGI (SF-295 CNS): > 100 µM | TGI (SF-539 CNS): 35.5 µM | TGI (SK-MEL-2 melanoma): 24.4 µM | TGI (SK-MEL-28 melanoma): 34.3 µM | TGI (SK-MEL-5 melanoma): > 58 µM | TGI (SK-OV-3 ovarian): > 100 µM | TGI (SN12C renal): 25.6 µM | TGI (SNB-19 CNS): > 69.1 µM | TGI (SNB-75 CNS): 24.7 µM | TGI (SR leukemia): 14.5 µM | TGI (SW-620 colon): 12.5 µM | TGI (T-47D breast): 30.8 µM | TGI (TK-10 renal): 28.3 µM | TGI (U251 CNS): 20.4 µM | TGI (UACC-257 melanoma): > 80.2 µM | TGI (UACC-62 melanoma): 24.7 µM | TGI (UO-31 renal): 55.1 µM

O=c1ccn(C2OC(CO)C(O)C2F)c(=O)[nH]1 (stereo not drawn)
GI50 (786-0 renal): > 1000 µM | TGI (786-0 renal): > 1000 µM | GI50 (A498 renal): > 1000 µM | TGI (A498 renal): > 1000 µM | GI50 (A549 NSCLC): > 1000 µM | TGI (A549 NSCLC): > 1000 µM | GI50 (ACHN renal): > 1000 µM | TGI (ACHN renal): > 1000 µM | GI50 (BT-549 breast): > 85.9 µM | TGI (BT-549 breast): > 100 µM | GI50 (CAKI-1 renal): > 88.9 µM | TGI (CAKI-1 renal): > 100 µM | TGI (CCRF-CEM leukemia): > 1000 µM | GI50 (COLO 205 colon): > 1000 µM | TGI (COLO 205 colon): > 1000 µM | GI50 (DU-145 prostate): > 1000 µM | TGI (DU-145 prostate): > 1000 µM | GI50 (EKVX NSCLC): > 1000 µM | TGI (EKVX NSCLC): > 1000 µM | TGI (HCC-2998 colon): > 100 µM | GI50 (HCT-116 colon): > 1000 µM | TGI (HCT-116 colon): > 1000 µM | GI50 (HCT-15 colon): > 1000 µM | TGI (HCT-15 colon): > 1000 µM | GI50 (HL-60(TB) leukemia): > 1000 µM | TGI (HL-60(TB) leukemia): > 1000 µM | GI50 (HOP-62 NSCLC): > 1000 µM | TGI (HOP-62 NSCLC): > 1000 µM | GI50 (HOP-92 NSCLC): > 1000 µM | TGI (HOP-92 NSCLC): > 1000 µM | GI50 (HS 578T breast): > 1000 µM | TGI (HS 578T breast): > 1000 µM | GI50 (HT29 colon): > 1000 µM | TGI (HT29 colon): > 1000 µM | GI50 (IGROV1 ovarian): > 1000 µM | TGI (IGROV1 ovarian): > 1000 µM | GI50 (K-562 leukemia): > 1000 µM | TGI (K-562 leukemia): > 1000 µM | GI50 (KM12 colon): > 1000 µM | TGI (KM12 colon): > 1000 µM | GI50 (LOX IMVI melanoma): > 1000 µM | TGI (LOX IMVI melanoma): > 1000 µM | GI50 (M14 melanoma): > 1000 µM | TGI (M14 melanoma): > 1000 µM | GI50 (MALME-3M melanoma): > 1000 µM | TGI (MALME-3M melanoma): > 1000 µM | GI50 (MCF7 breast): > 1000 µM | TGI (MCF7 breast): > 1000 µM | GI50 (MDA-MB-231 breast): > 1000 µM | TGI (MDA-MB-231 breast): > 1000 µM | GI50 (MDA-MB-435): > 1000 µM | TGI (MDA-MB-435): > 1000 µM | TGI (MDA-N): > 100 µM | GI50 (MOLT-4 leukemia): > 1000 µM | TGI (MOLT-4 leukemia): > 1000 µM | GI50 (NCI-H226 lung): > 1000 µM | TGI (NCI-H226 lung): > 1000 µM | GI50 (NCI-H23 lung): > 1000 µM | TGI (NCI-H23 lung): > 1000 µM | GI50 (NCI-H460 lung): > 1000 µM | TGI (NCI-H460 lung): > 1000 µM | GI50 (NCI-H522 lung): > 1000 µM | TGI (NCI-H522 lung): > 1000 µM | GI50 (NCI/ADR-RES ovarian): > 1000 µM | TGI (NCI/ADR-RES ovarian): > 1000 µM | GI50 (OVCAR-3 ovarian): > 1000 µM | TGI (OVCAR-3 ovarian): > 1000 µM | GI50 (OVCAR-4 ovarian): 26 µM | TGI (OVCAR-4 ovarian): 840 µM and > 100 µM | GI50 (OVCAR-5 ovarian): > 1000 µM | TGI (OVCAR-5 ovarian): > 1000 µM | GI50 (OVCAR-8 ovarian): > 1000 µM | TGI (OVCAR-8 ovarian): > 1000 µM | GI50 (PC-3 prostate): > 1000 µM | TGI (PC-3 prostate): > 1000 µM | GI50 (RPMI-8226 leukemia): > 1000 µM | TGI (RPMI-8226 leukemia): > 1000 µM | GI50 (RXF 393 renal): > 1000 µM | TGI (RXF 393 renal): > 1000 µM | GI50 (SF-268 CNS): > 1000 µM | TGI (SF-268 CNS): > 1000 µM | GI50 (SF-295 CNS): > 1000 µM | TGI (SF-295 CNS): > 1000 µM | GI50 (SF-539 CNS): > 1000 µM | TGI (SF-539 CNS): > 1000 µM | GI50 (SK-MEL-2 melanoma): > 1000 µM | TGI (SK-MEL-2 melanoma): > 1000 µM | GI50 (SK-MEL-28 melanoma): > 1000 µM | TGI (SK-MEL-28 melanoma): > 1000 µM | GI50 (SK-MEL-5 melanoma): > 1000 µM | TGI (SK-MEL-5 melanoma): > 1000 µM | GI50 (SK-OV-3 ovarian): > 1000 µM | TGI (SK-OV-3 ovarian): > 1000 µM | GI50 (SN12C renal): > 1000 µM | TGI (SN12C renal): > 1000 µM | GI50 (SNB-19 CNS): > 1000 µM | TGI (SNB-19 CNS): > 1000 µM | TGI (SNB-75 CNS): > 100 µM | GI50 (SR leukemia): > 1000 µM | TGI (SR leukemia): > 1000 µM | GI50 (SW-620 colon): > 1000 µM | TGI (SW-620 colon): > 1000 µM | GI50 (T-47D breast): > 1000 µM | TGI (T-47D breast): > 1000 µM | GI50 (TK-10 renal): > 1000 µM | TGI (TK-10 renal): > 1000 µM | GI50 (U251 CNS): > 1000 µM | TGI (U251 CNS): > 1000 µM | GI50 (UACC-257 melanoma): > 1000 µM | TGI (UACC-257 melanoma): > 1000 µM | GI50 (UACC-62 melanoma): > 1000 µM | TGI (UACC-62 melanoma): > 1000 µM | GI50 (UO-31 renal): > 1000 µM | TGI (UO-31 renal): > 1000 µM
